# Experiments:
# BRD4 (BDI_K57-E168) = biological target: T1, BRD4 (BDI_K57-E168) (Homo sapiens, UniProt O60885); assay: TR-FRET bromodomain binding assay, BRD4 first bromodomain; conditions: His-tagged BD1, 100 nM Alexa647 probe; Ki calculated from IC50; dilution protocol A-G
# T1 construct: BD1: amino acids K57-E168; made in house
# Procedure: (§1) A time-resolved fluorescence resonance energy transfer (TR-FRET) assay was used to determine the affinities of compounds of the Examples listed in Table 1 for each bromodomain of BRD4. His-tagged first (BD1: amino acids K57-E168) and second (BD2: amino acids E352-E168) bromodomains of BRD4 were expressed and purified. An Alexa647-labeled BET-inhibitor was used as the fluorescent probe in the assay.
# (§2) Compound dilution series were prepared in DMSO via an approximately 3-fold serial dilution from one of the following: • Assay method A: 2.5 mM-800 nM • Assay method B: 2.5 mM-797 nM • Assay method C: 1250 μM-21 nM • Assay method D: 500 μM-8.5 nM • Assay method E: 0.47 mM to 7.8 nM • Assay method F: 250 μM-4.2 nM • Assay method G: 0.047 mM to 0.78 nM or 5-fold serial dilution from Assay Method A or Assay Method B.
# (§3) For Assay methods A, C, D, and F: Compounds were then diluted 6:100 in assay buffer (20 mM Sodium Phosphate, pH 6.0, 50 mM NaCl, 1 mM Ethylenediaminetetraacetic acid, 0.01% Triton X-100, 1 mM DL-Dithiothreitol) to yield 3× working solutions. Six microliters (μL) of the working solution was then transferred to white, low-volume assay plates (Costar #3673). A 1.5× assay mixture containing His-tagged bromodomain, Europium-conjugated anti-His antibody (Invitrogen PV5596) and the Alexa-647-conjugated probe molecule was also prepared. Twelve μL of this solution were added to the assay plate to reach a final volume of 18 μL.
# (§4) For Assay methods B, E, and G: Compound dilutions were added directly into white, low-volume assay plates (Perkin Elmer Proxiplate 384 Plus#6008280) using a Labcyte Echo in conjunction with Labcyte Access and Thermo Multidrop CombinL robotics. Compounds were then suspended in eight microliters (μL) of assay buffer (20 mM Sodium Phosphate, pH 6.0, 50 mM NaCl, 1 mM Ethylenediaminetetraacetic acid disodium salt dihydrate, 0.01% Triton X-100, 1 mM DL-Dithiothreitol) containing His-tagged bromodomain, Europium-conjugated anti-His antibody (Invitrogen PV5596) and Alexa-647-conjugated probe.
# (§5) The final concentration of 1× assay mixture for assay methods A, B, C, D, E, F, and G contains 2% DMSO, 8 nM His-tagged bromodomain, 1 nM Europium-conjugated anti-His-tag antibody and 100 nM or 30 nM probe (for BDI or BDII, respectively) and compound concentration in the range of: 50 μM-16 nM for method A, 49.02 μM-15.63 nM for method B, 25 μM-423 pM for method C, 10 μM-169 pM for method D, 9.19 μM-150 pM for method E, 5 μM-85 pM for method F, and 0.92 μM-15 pM for method G.
# (§6) After a one-hour equilibration at room temperature, TR-FRET ratios were determined using an Envision multilabel plate reader (Ex 340, Em 495/520).
# (§7) TR-FRET data were normalized to the means of 24 no-compound controls (“high”) and 8 controls containing 1 μM un-labeled probe (“low”). Percent inhibition was plotted as a function of compound concentration and the data were fit with the 4 parameter logistic equation to obtain IC50s Inhibition constants (Ki) were calculated from the IC50s, probe Kd and probe concentration. Typical Z′ values were between 0.65 and 0.75. The minimum significant ratio was determined to evaluate assay reproducibility (Eastwood et al., (2006) J Biomol Screen, 11: 253-261). The MSR was determined to be 2.03 for BDI and 1.93 for BDII, and a moving MSR (last six run MSR overtime) for both BDI and BDII was typically <3.
# BRD4 (BDII_E352-M457) = biological target: T2, BRD4 (BDII_E352-M457) (Homo sapiens, UniProt O60885); assay: TR-FRET bromodomain binding assay, BRD4 second bromodomain
# T2 construct: made in house
# Procedure: as §1, §2, §3, §4, §5, §6, §7
Structure (SMILES),Ki (BRD4 (BDI_K57-E168)) [nM],Ki (BRD4 (BDII_E352-M457)) [nM]
"Cc1[nH]c(-c2ccccc2Oc2ccccc2)c2cc(C(=O)O)[nH]c(=O)c12 [Example 12, 3-methyl-4-oxo-1-(2-phenoxyphenyl)-4,5-dihydro-2H-pyrrolo[3,4-c]pyridine-6-carboxylic acid]",82.6,546
"Cc1[nH]c(-c2ccccc2Oc2ccccc2)c2cc[nH]c(=O)c12 [Example 14, 3-methyl-1-(2-phenoxyphenyl)-2H-pyrrolo[3,4-c]pyridin-4(5H)-one]",31.4,67.6
"Cc1[nH]c(-c2ccccc2Oc2ccc(F)cc2F)c2cc(C(=O)O)[nH]c(=O)c12 [Example 22, 1-[2-(2,4-difluorophenoxy)phenyl]-3-methyl-4-oxo-4,5-dihydro-2H-pyrrolo[3,4-c]pyridine-6-carboxylic acid]",225,2790
"CCOC(=O)c1cc2c(-c3cc(Cl)ccc3Oc3ccc(F)cc3F)[nH]c(C)c2c(=O)[nH]1 [Example 24, ethyl 1-[5-chloro-2-(2,4-difluorophenoxy)phenyl]-3-methyl-4-oxo-4,5-dihydro-2H-pyrrolo[3,4-c]pyridine-6-carboxylate]",92.2,2750
"CCOC(=O)c1cc2c(-c3cc([N+](=O)[O-])ccc3Oc3ccc(F)cc3F)[nH]c(C)c2c(=O)[nH]1 [Example 33, ethyl 1-[2-(2,4-difluorophenoxy)-5-nitrophenyl]-3-methyl-4-oxo-4,5-dihydro-2H-pyrrolo[3,4-c]pyridine-6-carboxylate]",499,759
"Cc1[nH]c(-c2cc(S(C)(=O)=O)ccc2Oc2ccc(F)cc2F)c2cc(C(=O)O)[nH]c(=O)c12 [Example 40, 1-[2-(2,4-difluorophenoxy)-5-(methylsulfonyl)phenyl]-3-methyl-4-oxo-4,5-dihydro-2H-pyrrolo[3,4-c]pyridine-6-carboxylic acid]",358,1720
"Cc1[nH]c(-c2ccccc2Oc2ccccc2)c2cc(C(=O)N(C)C)[nH]c(=O)c12 [Example 41, N,N,3-trimethyl-4-oxo-1-(2-phenoxyphenyl)-4,5-dihydro-2H-pyrrolo[3,4-c]pyridine-6-carboxamide]",141,944
"Cc1[nH]c(-c2ccccc2Oc2ccccc2)c2cc(-c3nc(-c4ccccc4)no3)[nH]c(=O)c12 [Example 46, 3-methyl-1-(2-phenoxyphenyl)-6-(3-phenyl-1,2,4-oxadiazol-5-yl)-2H-pyrrolo[3,4-c]pyridin-4(5H)-one]",1250,1220
"CCCc1noc(-c2cc3c(-c4ccccc4Oc4ccccc4)[nH]c(C)c3c(=O)[nH]2)n1 [Example 47, 3-methyl-1-(2-phenoxyphenyl)-6-(3-propyl-1,2,4-oxadiazol-5-yl)-2H-pyrrolo[3,4-c]pyridin-4(5H)-one]",519,2520
"Cc1[nH]c(-c2ccccc2Oc2ccccc2)c2cc(-c3nc(-c4ccc(N(C)C)cc4)no3)[nH]c(=O)c12 [Example 62, 6-(3-(4-(dimethylamino)phenyl)-1,2,4-oxadiazol-5-yl)-3-methyl-1-(2-phenoxyphenyl)-2H-pyrrolo[3,4-c]pyridin-4(5H)-one]",> 2380,> 4080
"Cc1[nH]c(-c2ccccc2Oc2ccccc2)c2cn[nH]c(=O)c12 [Example 72, 7-methyl-5-(2-phenoxyphenyl)-2,6-dihydro-1H-pyrrolo[3,4-d]pyridazin-1-one]",7.63,25.8
"Cc1[nH]c(-c2cc(NS(C)(=O)=O)ccc2Oc2ccccc2)c2cn[nH]c(=O)c12 [Example 73, N-[3-(7-methyl-1-oxo-2,6-dihydro-1H-pyrrolo[3,4-d]pyridazin-5-yl)-4-phenoxyphenyl]methanesulfonamide]",1.49,8.5
"Cc1ccc(S(=O)(=O)Nc2ccccc2-c2[nH]c(C)c3c(=O)[nH]ncc23)cc1 [Example 77, 4-methyl-N-[2-(7-methyl-1-oxo-2,6-dihydro-1H-pyrrolo[3,4-d]pyridazin-5-yl)phenyl]benzenesulfonamide]",> 13000,> 22200
"Cc1[nH]c(-c2ccccc2Oc2ccccc2)c2nc(C(=O)O)[nH]c(=O)c12 [Example 86, 5-methyl-4-oxo-7-(2-phenoxyphenyl)-4,6-dihydro-3H-pyrrolo[3,4-d]pyrimidine-2-carboxylic acid]",1370,12300
"Cc1[nH]c(-c2cc(N)ccc2Oc2ccccc2)c2nc[nH]c(=O)c12 [Example 90, 7-(5-amino-2-phenoxyphenyl)-5-methyl-3,6-dihydro-4H-pyrrolo[3,4-d]pyrimidin-4-one]",108,791
"Cc1[nH]c(-c2cc(NS(C)(=O)=O)ccc2Oc2ccccc2)c2nc[nH]c(=O)c12 [Example 91, N-[3-(5-methyl-4-oxo-4,6-dihydro-3H-pyrrolo[3,4-d]pyrimidin-7-yl)-4-phenoxyphenyl]methanesulfonamide]",22.6,117
"Cc1[nH]c(-c2ccccc2Oc2ccccc2)c2c1C(=O)NCC2 [Example 92, 3-methyl-1-(2-phenoxyphenyl)-2,5,6,7-tetrahydro-4H-pyrrolo[3,4-c]pyridin-4-one]",14.1,47
"Cc1[nH]c(-c2cc(NS(C)(=O)=O)ccc2Oc2ccc(F)cc2F)c2c1C(=O)NCC2 [Example 93, N-[4-(2,4-difluorophenoxy)-3-(3-methyl-4-oxo-4,5,6,7-tetrahydro-2H-pyrrolo[3,4-c]pyridin-1-yl)phenyl]methanesulfonamide]",14,138
"Cc1[nH]c(-c2cc(NS(C)(=O)=O)ccc2Oc2ccccc2)c2c1C(=O)NCC2 [Example 95, N-[3-(3-methyl-4-oxo-4,5,6,7-tetrahydro-2H-pyrrolo[3,4-c]pyridin-1-yl)-4-phenoxyphenyl]methanesulfonamide]",3.67,20.4
"Cc1[nH]c(-c2cc(S(C)(=O)=O)ccc2F)c2c1C(=O)NCC2 [Example 99, 1-[2-fluoro-5-(methylsulfonyl)phenyl]-3-methyl-2,5,6,7-tetrahydro-4H-pyrrolo[3,4-c]pyridin-4-one]",1620,> 4440
"Cc1[nH]c(-c2ccccc2)c2c1C(=O)NCC2 [Example 100, 3-methyl-1-phenyl-2,5,6,7-tetrahydro-4H-pyrrolo[3,4-c]pyridin-4-one]",2250,2920
"Cc1[nH]c(-c2cc(CN3CCN(C)CC3)ccc2Oc2ccc(F)cc2F)c2c1C(=O)NCC2 [Example 102, 1-{2-(2,4-difluorophenoxy)-5-[(4-methylpiperazin-1-yl)methyl]phenyl}-3-methyl-2,5,6,7-tetrahydro-4H-pyrrolo[3,4-c]pyridin-4-one]",1560,3120
